# From patent US9314464B2, “Compounds and compositions as protein kinase inhibitors” (Novartis AG, priority 2009, dated 2016)
# How the values were obtained:
# [1] = Liver Microsomal Clearance Assay, human; type: in vitro ADME; conditions: extraction ratio, human liver microsomes
# Procedure: (§1) Liver Microsomal Clearance Assay
# (§2) The in vitro microsomal clearance assay is designed to assess potential risks associated with hepatic metabolic stability of compounds. The test compound (1 μM) was incubated with liver microsomes (0.5 mg/mL) from different species (mouse, rat, monkey, dog and human) and NADPH (1 mM) in 100 mM potassium phosphate buffer at 37° C. At specific reaction time points (0, 5, 10 and 30 minutes), reaction aliquots were removed and reactions were terminated by addition of ice cold acetonitrile containing mass spectrometry internal standard. The samples were centrifuged and the supernatants were analyzed by LC-MS/MS. In vitro metabolic half-life (t1/2, min) and intrinsic clearance (CLint, μL/min/mg) are based on the rate and extent of metabolism of the test compound as determined by the disappearance of the parent compound from the reaction mixture. These values may be scaled to predict hepatic metabolic clearance rate (CLh, mL/min/kg) and extraction ratio (ER, expressed as a ratio of the predicted hepatic metabolic clearance to hepatic blood flow in that species). In general, compounds with high predicted CLint or ER in vitro are considered to be at high risk for exposure-limiting metabolism in vivo.
# [2] = In Vivo Pharmacokinetics Assay in mouse; conditions: male, Balb/c, plasma; for clearance at 24 h: IV 2 mg/kg
# Procedure: (§3) Full pharmacokinetics study: Male Balb/c mice (n=3, body weights 22-25 g) or male Wistar rats (n=3, body weights 250-300 g) were administered the test compound intravenously via the lateral tail vein or orally via gavage. The formulation was typically a 2.5 mg/mL solution of the compound in 75% PEG300 and 25% D5W. Six blood samples of 50 μL each were collected serially for 24 h after dosing. The blood samples were centrifuged to separate the plasma. Plasma samples were analyzed and quantified by LC-MS/MS.
# as §3, with “Rapid” for “Full”, “intravenously (IV)” for “intravenously”, “orally (PO)” for “orally”, “Blood” for “The blood”, “and plasma separated and pooled across” for “to separate”, “three animals at each time point per dose route.” for “plasma.”
# For both full and rapid pharmacokinetics studies, the following parameters were calculated by non-compartmental regression analysis using Winnonlin 5.0 software (Pharsight, Mountain View, Calif., USA): plasma clearance (Cl), plasma maximum concentration (Cmax), plasma area-under-the-concentration-time-curve (AUC0-inf), and percent oral bioavailability (F %).
# [3] = Liver Microsomal Clearance Assay, mouse; type: in vitro ADME; conditions: extraction ratio, mouse liver microsomes
# Procedure: as §1, §2
# B-Raf V600E = B-Raf V600E (Homo sapiens (Human), UniProt P15056, V600E); experiment: B-Raf V600E/Mek Amplified Luminescence Proximity Homogeneous Assay (B-Raf V600E biochemical); conditions: read-out: BRAF V600E biochemical IC50
# B-Raf V600E, sequence (P15056 whole entry V600E): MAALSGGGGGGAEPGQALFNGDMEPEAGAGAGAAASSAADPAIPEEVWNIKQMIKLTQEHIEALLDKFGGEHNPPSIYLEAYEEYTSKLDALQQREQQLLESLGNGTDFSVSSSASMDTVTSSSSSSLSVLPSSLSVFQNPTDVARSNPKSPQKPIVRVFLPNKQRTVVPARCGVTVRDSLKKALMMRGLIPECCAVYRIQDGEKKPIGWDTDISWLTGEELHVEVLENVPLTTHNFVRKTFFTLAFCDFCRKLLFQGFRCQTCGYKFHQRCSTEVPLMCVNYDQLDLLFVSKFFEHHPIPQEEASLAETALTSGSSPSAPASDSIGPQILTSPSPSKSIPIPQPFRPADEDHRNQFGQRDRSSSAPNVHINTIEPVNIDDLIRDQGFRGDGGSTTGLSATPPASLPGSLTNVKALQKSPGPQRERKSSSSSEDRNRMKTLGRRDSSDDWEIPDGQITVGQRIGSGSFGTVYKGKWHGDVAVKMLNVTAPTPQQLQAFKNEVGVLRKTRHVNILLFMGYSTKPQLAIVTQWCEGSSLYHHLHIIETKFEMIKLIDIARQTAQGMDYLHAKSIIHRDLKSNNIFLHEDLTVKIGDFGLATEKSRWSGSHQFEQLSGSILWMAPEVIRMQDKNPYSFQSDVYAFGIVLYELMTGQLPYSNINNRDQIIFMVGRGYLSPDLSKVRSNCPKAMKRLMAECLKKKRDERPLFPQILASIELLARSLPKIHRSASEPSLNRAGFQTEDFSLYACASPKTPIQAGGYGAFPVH
# Procedure: The plate was incubated for 60 minutes at room temperature.
# The B-Raf kinase activity reaction was started by the addition of 10 μl per well of 2×ATP (10 μM) diluted in assay buffer. After 3 hours, the reactions were stopped with the addition of 10 μl of stop reagent (60 mM EDTA, 0.01% Tween20). Phosphorylated product was measured using a rabbit anti-p-MEK (Cell Signaling, #9121) antibody and the Alpha Screen IgG (ProteinA) detection Kit (PerkinElmer #6760617R), by the addition of 30 μl to the well of a mixture of the antibody (1:2000 dilution) and detection beads (1:1000 dilution of both beads) in bead buffer (50 mM Tris, pH 7.5, 0.01% Tween20). The additions were carried out under dark conditions to protect the detection beads from light. A lid was placed on top of the plate and the plate was incubated for 1 hour at room temperature. The luminescence was read on a PerkinElmer Envision instrument. The concentration of each compound for 50% inhibition (IC50) was calculated by non-linear regression using XL Fit data analysis software.
# [4] = 5 mg/kg, PO/IV 5/2 mg/kg, n = 1
smiles,measurement,setting,value
"CCCS(=O)(=O)Nc1cc(Cl)cc(-c2nn(C(C)C)cc2-c2ccnc(NC[C@H](C)NC(=O)OC)n2)c1F [Compound 1, Methyl N-[(2S)-1-[(4-{3-[5-chloro-2-fluoro-3-(propane-1-sulfonamido)phenyl]-1-(propan-2-yl)-1H-pyrazol-4-yl}pyrimidin-2-yl)amino]propan-2-yl]carbamate]",ER Human,[1],0.66
same,bioavailability at 24 h,[2]; [4],46%
same,clearance at 24 h,[2],7 mL/min/kg
same,AUC at 24 h,"[2]; PO 5 mg/kg, n = 1",9.7 µM·h
same,Cmax at 24 h,"[2]; PO 5 mg/kg, n = 1",7400 nM
same,ER Mouse,[3],0.79
"CCCS(=O)(=O)Nc1cccc(-c2nn(C(C)C)cc2-c2ccnc(NC[C@H](C)NC(=O)OC)n2)c1F [Compound 3, methyl N-[(2S)-1-[(4-{3-[2-fluoro-3-(propane-1-sulfonamido)phenyl]-1-(propan-2-yl)-1H-pyrazol-4-yl}pyrimidin-2-yl)amino]propan-2-yl]carbamate]",ER Human,[1],0.69
same,bioavailability at 24 h,[2]; [4],6%
same,clearance at 24 h,[2],51 mL/min/kg
same,AUC at 24 h,"[2]; PO 5 mg/kg, n = 1",0.2 µM·h
same,Cmax at 24 h,"[2]; PO 5 mg/kg, n = 1",70 nM
same,ER Mouse,[3],0.85
"COC(=O)N[C@@H](C)CNc1nccc(-c2cn(C(C)C)nc2-c2cccc(NS(C)(=O)=O)c2F)n1 [Compound 4, methyl N-[(2S)-1-({4-[3-(2-fluoro-3-methanesulfonamidophenyl)-1-(propan-2-yl)-1H-pyrazol-4-yl]pyrimidin-2-yl}amino)propan-2-yl]carbamate]",ER Human,[1],<0.31
same,bioavailability at 24 h,"[2]; 10 mg/kg, PO/IV 10/2 mg/kg",36 ± 6%
same,clearance at 24 h,[2],41 ± 9 mL/min/kg
same,AUC at 24 h,[2]; PO 10 mg/kg,3 ± 0.5 µM·h
same,Cmax at 24 h,[2]; PO 10 mg/kg,2000 ± 500 nM
same,ER Mouse,[3],0.40
same,IC50,B-Raf V600E,2.3 nM
"COC(=O)N[C@@H](C)CNc1nccc(-c2cn(C(C)C)nc2-c2c(F)ccc(NS(C)(=O)=O)c2F)n1 [Compound 6, methyl N-[(2S)-1-({4-[3-(2,6-difluoro-3-methanesulfonamidophenyl)-1-(propan-2-yl)-1H-pyrazol-4-yl]pyrimidin-2-yl}amino)propan-2-yl]carbamate]",ER Human,[1],0.69
same,bioavailability at 24 h,"[2]; 10 mg/kg, PO/IV 10/2 mg/kg",15 ± 3%
same,clearance at 24 h,[2],61 ± 6 mL/min/kg
same,AUC at 24 h,[2]; PO 10 mg/kg,1.1 ± 0.2 µM·h
same,Cmax at 24 h,[2]; PO 10 mg/kg,600 ± 20 nM
same,IC50,B-Raf V600E,3.9 nM
"CCCS(=O)(=O)Nc1ccc(F)c(-c2nn(C(C)C)cc2-c2ccnc(NC[C@H](C)NC(=O)OC)n2)c1F [Compound 7, Methyl N-[(2S)-1-[(4-{3-[2,6-difluoro-3-(propane-1-sulfonamido)phenyl]-1-(propan-2-yl)-1H-pyrazol-4-yl}pyrimidin-2-yl)amino]propan-2-yl]carbamate]",ER Human,[1],0.65
same,bioavailability at 24 h,"[2]; 10 mg/kg, PO/IV 10/2 mg/kg",8 ± 7%
same,clearance at 24 h,[2],99 ± 13 mL/min/kg
same,AUC at 24 h,[2]; PO 10 mg/kg,0.24 ± 0.21 µM·h
same,Cmax at 24 h,[2]; PO 10 mg/kg,150 ± 70 nM
same,ER Mouse,[3],0.91
same,IC50,B-Raf V600E,0.7 nM
